Values quoted from earlier work in patent publication US20240024227A1, “CANNABIS PLANT DERIVED EXTRACELLULAR VESICLES AND THERAPEUTIC METHODS USING THE SAME” (UNIVERSITY OF FLORIDA RESEARCH FOUNDATION, INCORPORATED, priority 2020, published 2024).
Read-outs that look alike come from different tables or passages of the source.

Settings: IP approximately 300 μg

Structure (SMILES)	THCa levels in the brain	CBDa brain Cmax (ethanol Tween-80 solution) [ng/mg]	CBDa brain Cmax (vegetable oil) [ng/mg]	time of CBDa brain Cmax (vegetable oil or Tween-80) [min]
CCCCCc1cc2c(c(O)c1C(=O)O)[C@@H]1C=C(C)CC[C@H]1C(C)(C)O2 [THCa, tetrahydrocannabinolic acid]	below detection			
C=C(C)[C@@H]1CCC(C)=C[C@H]1c1c(O)cc(CCCCC)c(C(=O)O)c1O [CBDa, Cannabidiolic acid]		13.2	2.0	30
